Data from patent US20260042753A1 (Merck Patent GmbH, priority 2019, published 2026).
Read-outs that look alike come from different tables or passages of the source.

Tests used:
[1] = biological target: mutant cKIT (560-576 and V654A) in GIST430/654 cell line (Homo sapiens (Human), UniProt P10721, DEL560-576/V654A); assay: Cellular testing of cKIT mutant inhibitors: phospho-Y307-cKIT Luminex assay in GIST430/654 cells; assay type: cell-based; details: read-out: GIST 430/654 IC50
Method in brief: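 GIST430/654 cells carrying constitutively active cKIT (Δ560-576/V654A) were grown with 100 nM imatinib, then treated with serially diluted compound for 45 min. Lysates were captured on anti-total-cKIT Luminex beads overnight at 4 °C and probed for phospho-Y307-cKIT. IC50 was fitted from percent of 0.3% DMSO control.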

c-Kit(V654A) = c-Kit(V654A) (Homo sapiens, UniProt P10721, V654A); assay: c-Kit(V654A) assay; assay type: biochemical
Method in brief: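 Radiometric filter-binding read-out: after 3% phosphoric acid stop, peptide-incorporated 33P on filtermat scintillation-counted. Enzyme: human c-Kit V654A, residues 544–end, N-terminal GST fusion.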

[2] = Table 1, cKIT autophosphorylation, compounds 45 min
[3] = Table 2, corresponding triazole derivatives

mutant cKIT (560-576 and V654A) in GIST430/654 cell line, sequence (P10721 other isoform, or with tags, fused parts or gaps V654A/del 1-25/del 560-576 limits assumed): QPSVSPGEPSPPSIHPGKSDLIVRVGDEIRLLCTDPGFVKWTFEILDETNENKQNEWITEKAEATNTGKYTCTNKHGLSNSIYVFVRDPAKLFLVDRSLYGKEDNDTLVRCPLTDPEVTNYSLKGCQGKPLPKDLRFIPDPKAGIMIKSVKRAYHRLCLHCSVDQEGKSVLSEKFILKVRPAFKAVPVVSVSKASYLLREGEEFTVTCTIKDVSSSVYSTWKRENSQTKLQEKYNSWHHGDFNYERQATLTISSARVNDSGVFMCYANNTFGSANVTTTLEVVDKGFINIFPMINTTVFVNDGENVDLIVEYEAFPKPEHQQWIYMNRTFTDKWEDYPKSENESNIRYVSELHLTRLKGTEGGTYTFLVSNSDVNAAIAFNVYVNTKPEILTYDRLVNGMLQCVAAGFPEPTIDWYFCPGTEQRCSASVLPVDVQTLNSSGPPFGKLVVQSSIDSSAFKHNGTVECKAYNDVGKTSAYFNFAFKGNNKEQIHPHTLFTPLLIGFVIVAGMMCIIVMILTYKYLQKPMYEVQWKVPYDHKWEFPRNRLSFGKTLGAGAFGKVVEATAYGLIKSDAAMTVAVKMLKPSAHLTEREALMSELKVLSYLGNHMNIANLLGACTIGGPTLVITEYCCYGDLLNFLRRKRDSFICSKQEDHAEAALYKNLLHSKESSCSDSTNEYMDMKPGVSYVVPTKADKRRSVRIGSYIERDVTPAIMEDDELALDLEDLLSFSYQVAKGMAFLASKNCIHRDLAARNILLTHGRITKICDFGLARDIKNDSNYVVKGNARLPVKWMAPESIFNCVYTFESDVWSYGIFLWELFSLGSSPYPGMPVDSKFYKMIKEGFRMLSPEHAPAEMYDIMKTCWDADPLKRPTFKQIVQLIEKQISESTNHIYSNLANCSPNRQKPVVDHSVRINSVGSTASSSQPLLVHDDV

IC50 [1, 2] | IC50 (c-Kit(V654A); Table 1, 200 μM ATP) | IC50 [1, 3] | IC50 (c-Kit(V654A); [3]) | SMILES
0.11 µM | 0.0004 µM | – | – | COCCOc1cc2[nH]nc(-c3cc(-c4ccc(C5CCNCC5(C)C)cc4)no3)c2cc1F (stereo not drawn) [A230, 3-{3-[4-(3,3-dimethyl-piperidin-4-yl)-phenyl]-isoxazol-5-yl}-5-fluoro-6-(2-methoxy-ethoxy)-1H-indazole]
0.13 µM | 0.001 µM | – | – | COCCOc1cc2[nH]nc(-c3cc(-c4ccc(OCCN5CCN(C)CC5)cc4)no3)c2cc1F [A133, 5-fluoro-6-(2-methoxyethoxy)-3-(3-{4-[2-(4-methylpiperazin-1-yl)ethoxy]phenyl}-1,2-oxazol-5-yl)-1H-indazole]
0.039 µM | 0.00091 µM | – | – | COCCOc1cc2[nH]nc(-c3cc(-c4ccc(C(=O)N5CC[C@H](F)C5)cc4)no3)c2cc1F [A32, 5-fluoro-3-(3-{4-[(3S)-3-fluoropyrrolidine-1-carbonyl]phenyl}-1,2-oxazol-5-yl)-6-(2-methoxyethoxy)-1H-indazole]
0.044 µM | 0.00078 µM | – | – | COCCOc1cc2[nH]nc(-c3cc(-c4ccc(C(=O)N5CCN(C6COC6)CC5)cc4)no3)c2cc1Cl [A194, (4-{5-[5-chloro-6-(2-methoxy-ethoxy)-1H-indazol-3-yl]-isoxazol-3-yl}-phenyl)-(4-oxetan-3-yl-piperazin-1-yl)-methanone]
0.054 µM | 0.00089 µM | – | – | COCCOc1cc2[nH]nc(-c3cc(-c4ccc(C(=O)N5CC(c6ccncn6)C5)cc4)no3)c2cc1F [A172, 5-fluoro-6-(2-methoxyethoxy)-3-(3-{4-[3-(pyrimidin-4-yl)azetidine-1-carbonyl]phenyl}-1,2-oxazol-5-yl)-1H-indazole]
0.17 µM | 0.00073 µM | – | – | COCCOc1cc2[nH]nc(-c3cc(-c4ccc(N5CCCNCC5)cc4)no3)c2cc1F [A42, 3-{3-[4-(1,4-diazepan-1-yl)phenyl]-1,2-oxazol-5-yl}-5-fluoro-6-(2-methoxyethoxy)-1H-indazole]
0.056 µM | 0.00073 µM | – | – | COCCOc1cc2[nH]nc(-c3cc(-c4ccc(C(=O)N5CCS(=O)(=O)CC5)cc4)no3)c2cc1F [A30, 4-(4-{5-[5-fluoro-6-(2-methoxyethoxy)-1H-indazol-3-yl]-1,2-oxazol-3-yl}benzoyl)-1lambda6-thiomorpholine-1,1-dione]
1.9 µM | 0.0032 µM | – | – | COCCOc1cc2[nH]nc(-c3cc(-c4ccc(S(=O)(=O)N(C)C)cc4)no3)c2cc1F [A144, 4-{5-[5-fluoro-6-(2-methoxyethoxy)-1H-indazol-3-yl]-1,2-oxazol-3-yl}-N,N-dimethylbenzene-1-sulfonamide]
0.039 µM | 0.0013 µM | – | – | COCCOc1cc2[nH]nc(-c3cc(-c4ccc(C(=O)N5CC(N6CCO[C@H](C)C6)C5)cc4)no3)c2cc1F [A211, 5-fluoro-6-(2-methoxyethoxy)-3-[3-(4-{3-[(2R)-2-methylmorpholin-4-yl]azetidine-1-carbonyl}phenyl)-1,2-oxazol-5-yl]-1H-indazole]
0.12 µM | 0.0022 µM | – | – | COCCOc1cc2[nH]nc(-c3cc(-c4ccc(C(=O)N5CCOCC5)cc4)on3)c2cc1F [A43, (4-{3-[5-fluoro-6-(2-methoxy-ethoxy)-1H-indazol-3-yl]-isoxazol-5-yl}-phenyl)-morpholin-4-yl-methanone]
0.075 µM | 0.006 µM | – | – | COCCOc1cc2[nH]nc(-c3cc(-c4ccc(-n5ncccc5=O)cc4)no3)c2cc1F [A142, 2-(4-{5-[5-fluoro-6-(2-methoxyethoxy)-1H-indazol-3-yl]-1,2-oxazol-3-yl}phenyl)-2,3-dihydropyridazin-3-one]
0.38 µM | 0.0011 µM | – | – | COCCOc1cc2[nH]nc(-c3cc(-c4ccc(C(=O)N5C[C@H]6CNC[C@H]6C5)cc4)no3)c2cc1F [A223, 3-(3-{4-[(cis)-octahydropyrrolo[3,4-c]pyrrole-2-carbonyl]phenyl}-1,2-oxazol-5-yl)-5-fluoro-6-(2-methoxyethoxy)-1H-indazole]
0.014 µM | 0.00045 µM | – | – | COCCOc1cc2[nH]nc(-c3cc(-c4ccc(C(=O)N5CC(c6cccnc6)C5)cc4)no3)c2cc1F [A192, 5-fluoro-6-(2-methoxyethoxy)-3-(3-{4-[3-(pyridin-3-yl)azetidine-1-carbonyl]phenyl}-1,2-oxazol-5-yl)-1H-indazole]
– | – | 0.24 µM | 0.0075 µM | COCCOc1cc2[nH]nc(-c3cn(-c4ccc(C(=O)N5CC[C@H]5C(C)(C)O)cc4)nn3)c2cc1F [reference compound]
0.12 µM | 0.00047 µM | – | – | COCCOc1cc2[nH]nc(-c3cc(-c4ccc(C(=O)N5CCC[C@H]5CNS(C)(=O)=O)cc4)no3)c2cc1F [A90, N-{[(2S)-1-(4-{5-[5-fluoro-6-(2-methoxyethoxy)-1H-indazol-3-yl]-1,2-oxazol-3-yl}benzoyl)pyrrolidin-2-yl]methyl}methanesulfonamide]
1.1 µM | 0.047 µM | – | – | CCOc1cc2[nH]nc(-c3cc(-c4ccc(C(=O)N5CCN(C6COC6)CC5)cc4)no3)c2cc1F [A229, 6-ethoxy-5-fluoro-3-(3-{4-[4-(oxetan-3-yl)piperazine-1-carbonyl]phenyl}-1,2-oxazol-5-yl)-1H-indazole]
0.041 µM | 0.0011 µM | – | – | COCCOc1cc2[nH]nc(-c3cc(-c4ccc(C(=O)N5CCCOCC5)cc4)no3)c2cc1F [A44, 5-fluoro-6-(2-methoxyethoxy)-3-{3-[4-(1,4-oxazepane-4-carbonyl)phenyl]-1,2-oxazol-5-yl}-1H-indazole]
0.065 µM | 0.003 µM | – | – | COCCOc1cc2[nH]nc(-c3cc(-c4ccc(N5CCS(=O)(=O)CC5)nc4)no3)c2cc1F [A131, 4-(5-{5-[5-fluoro-6-(2-methoxyethoxy)-1H-indazol-3-yl]-1,2-oxazol-3-yl}pyridin-2-yl)-1lambda6-thiomorpholine-1,1-dione]
0.29 µM | 0.0014 µM | – | – | COCCOc1cc2[nH]nc(-c3cc(-c4ccc(C(=O)N5CC(N6CC7(COC7)C6)C5)cc4)no3)c2cc1F [A187, 5-fluoro-6-(2-methoxyethoxy)-3-f{3-[4-(3-f{2-oxa-6-azaspiro[3.3]heptan-6-yl}azetidine-1-carbonyl)phenyl]-1,2-oxazol-5-yl}-1H-indazole]
0.048 µM | 0.0017 µM | – | – | COCCOc1cc2[nH]nc(-c3cc(-c4ccc(C(=O)N(C)C)cc4)no3)c2cc1F [A20, 4-{5-[5-fluoro-6-(2-methoxyethoxy)-1H-indazol-3-yl]-1,2-oxazol-3-yl}-N,N-dimethylbenzamide]
2.2 µM | 0.032 µM | – | – | COCCOc1cc2[nH]nc(-c3cc(-c4ccc(C)nc4)no3)c2cc1F [A22, 5-fluoro-6-(2-methoxyethoxy)-3-[3-(6-methylpyridin-3-yl)-1,2-oxazol-5-yl]-1H-indazole]
0.056 µM | 0.00081 µM | – | – | COCCOc1cc2[nH]nc(-c3cc(-c4ccc(C(=O)N5C6CC5CS(=O)(=O)C6)cc4)no3)c2cc1F [A108, 6-(4-{5-[5-fluoro-6-(2-methoxyethoxy)-1H-indazol-3-yl]-1,2-oxazol-3-yl}benzoyl)-3lambda6-thia-6-azabicyclo[3.1.1]heptane-3,3-dione]
0.39 µM | 0.00095 µM | – | – | COCCOc1cc2[nH]nc(-c3cc(-c4ccc(C(=O)N5CC(S(C)(=O)=O)C5)cc4)no3)c2cc1F [A29, 5-fluoro-3-{3-[4-(3-methanesulfonylazetidine-1-carbonyl)phenyl]-1,2-oxazol-5-yl}-6-(2-methoxyethoxy)-1H-indazole]
0.082 µM | 0.0026 µM | – | – | COCCOc1cc2[nH]nc(-c3cc(-c4ccc(C(=O)N5CCN(C)CC5)cc4)on3)c2cc1F [A113, (4-{3-[5-fluoro-6-(2-methoxy-ethoxy)-1H-indazol-3-yl]-isoxazol-5-yl}-phenyl)-(4-methyl-piperazin-1-yl)-methanone]
0.061 µM | 0.0013 µM | – | – | COCCOc1cc2[nH]nc(-c3cc(-c4ccc(C(=O)N5CC(OC)C5)cc4)no3)c2cc1F [A33, 5-fluoro-3-{3-[4-(3-methoxyazetidine-1-carbonyl)phenyl]-1,2-oxazol-5-yl}-6-(2-methoxyethoxy)-1H-indazole]
0.058 µM | 0.00079 µM | – | – | COCCOc1cc2[nH]nc(-c3cc(-c4ccc(C(=O)N5CCOCC5)cc4)no3)c2cc1F [A104, 5-fluoro-6-(2-methoxyethoxy)-3-{3-[4-(morpholine-4-carbonyl)phenyl]-1,2-oxazol-5-yl}-1H-indazole]
0.074 µM | 0.0004 µM | – | – | COCCOc1cc2[nH]nc(-c3cc(-c4ccc(C(=O)N5CCN(C)CC5)cc4)no3)c2cc1Cl [A167, (4-{5-[5-chloro-6-(2-methoxy-ethoxy)-1H-indazol-3-yl]-isoxazol-3-yl}-phenyl)-(4-methyl-piperazin-1-yl)-methanone]
0.061 µM | 0.00088 µM | – | – | COCCOc1cc2[nH]nc(-c3cc(-c4ccc(C(=O)N5CC(N6CCOCC6=O)C5)cc4)no3)c2cc1F [A204, 4-[1-(4-{5-[5-fluoro-6-(2-methoxyethoxy)-1H-indazol-3-yl]-1,2-oxazol-3-yl}benzoyl)azetidin-3-yl]morpholin-3-one]
0.16 µM | 0.0022 µM | – | – | COc1cc2[nH]nc(-c3cc(-c4ccc(C(=O)N5C[C@H]6COC[C@H]6C5)cc4)no3)c2cc1F [A220, {4-[5-(5-Fluoro-6-methoxy-1H-indazol-3-yl)-isoxazol-3-yl]-phenyl}-(cis)-tetrahydro-furo[3,4-c]pyrrol-5-yl-methanone]

SMILES | IC50 [1, 2] | IC50 (c-Kit(V654A); Table 1, 200 μM ATP) | IC50 [1, 3] | IC50 (c-Kit(V654A); [3])
COCCOc1cc2[nH]nc(-c3cc(-c4ccc(C(=O)N5C6COCC5C6)cc4)no3)c2cc1F [A182, 5-fluoro-6-(2-methoxyethoxy)-3-[3-(4-{3-oxa-6-azabicyclo[3.1.1]heptane-6-carbonyl}phenyl)-1,2-oxazol-5-yl]-1H-indazole] | 0.038 µM | 0.00094 µM | – | –
